Source: DBAASP
Converted amounts (≈) assume the structure as drawn. “And” between values parts separate entries of the source, which are not always exact repeats. Equal entries are not always repeated. Each block holds one compound with its values, some of them ahead of it.

What was measured:
Assay in all cases: ≥ marks a high value that may be exact or a test limit, other limits are often not marked, values filed in µg/mL are converted to µM
[1] = test system: Acinetobacter baumannii NM75
[2] = test system: Acinetobacter baumannii NM8
[3] = test system: Candida albicans ATCC 90028
[4] = test system: Escherichia coli ATCC 25726
[5] = test system: Staphylococcus aureus ATCC 25923
[6] = test system: Bacillus subtilis 1A751
[7] = test system: Escherichia coli ATCC 25922
[8] = test system: Salmonella enterica subsp. enterica serovar Choleraesuis CMCC 50020
[9] = test system: Aggregatibacter actinomycetemcomitans ATCC 29522
[10] = test system: Batrachochytrium dendrobatidis
[11] = test system: Enterobacter cloacae NHTCC 53001
[12] = test system: Klebsiella pneumoniae ATCC 700603
[13] = test system: Klebsiella pneumoniae KK3 9904
[14] = test system: Proteus mirabilis ATCC 25933
[15] = test system: Pseudomonas aeruginosa ATCC 27853
[16] = test system: Staphylococcus aureus ATCC 29213
[17] = test system: Staphylococcus aureus ATCC 33591
[18] = test system: Staphylococcus aureus ATCC 700699
[19] = test system: Acinetobacter baumannii
[20] = test system: Staphylococcus epidermidis RP62A/1
[21] = test system: Staphylococcus epidermidis RP62A
[22] = test system: Stenotrophomonas maltophilia
[23] = test system: Bacillus magaterium AB90008
[24] = test system: Bacillus thuringiensis AB93100
[25] = test system: Candida tropicalis AY91009
[26] = test system: Enterobacter cloacae subsp. cloacae AB2010162
[27] = test system: Escherichia coli DH5alpha
[28] = test system: Escherichia coli JM109
[29] = test system: Klebsiella oxytoca AB2010143
[30] = test system: Pseudomonas fluorescens
[31] = test system: Pseudomonas putida
[32] = test system: Salmonella enterica AB2010185
[33] = test system: Staphylococcus aureus AB94004

Compound: CC[C@H](C)[C@H](NC(=O)CNC(=O)[C@H](CCCCN)NC(=O)[C@@H](NC(=O)[C@H](CC(C)C)NC(=O)[C@H](CO)NC(=O)CNC(=O)[C@H](CC(C)C)NC(=O)CNC(=O)[C@H](C)NC(=O)[C@H](CCCCN)NC(=O)[C@H](Cc1ccccc1)NC(=O)[C@@H](NC(=O)[C@H](CCCCN)NC(=O)[C@H](CCCCN)NC(=O)[C@H](CC(C)C)NC(=O)CN)[C@@H](C)CC)C(C)C)C(=O)N[C@@H](CCCCN)C(=O)N[C@@H](C)C(=O)N[C@@H](Cc1cnc[nH]1)C(=O)N[C@H](C(=O)N[C@@H](C)C(=O)N[C@@H](CO)C(N)=O)C(C)C [GLKKIFKAGLGSLVKGIKAHVAS]
- MIC [1]: 2.5 µM (≈ 5.8 µg/mL)
- MIC [2]: 5 µM (≈ 11.6 µg/mL)
- MIC [3]: 20 µM (≈ 46.4 µg/mL)
- MIC [4]: 10 µM (≈ 23.2 µg/mL)
- MIC [5]: > 250 µM

Compound: CC[C@H](C)[C@H](NC(=O)[C@H](CCCCN)NC(=O)[C@H](CC(=O)O)NC(=O)[C@H](CC(C)C)NC(=O)[C@@H](NC(=O)[C@H](CC(N)=O)NC(=O)[C@H](CC(C)C)NC(=O)[C@H](Cc1ccccc1)NC(=O)[C@H](Cc1ccccc1)NC(=O)[C@H](CCCCN)NC(=O)[C@H](CCCCN)NC(=O)CNC(=O)[C@H](C)NC(=O)[C@H](CCC(N)=O)NC(=O)[C@H](CCCCN)NC(=O)[C@@H](NC(=O)[C@@H](NC(=O)[C@H](CC(=O)O)NC(=O)[C@H](Cc1c[nH]c2ccccc12)NC(=O)[C@H](CC(C)C)NC(=O)CN)[C@@H](C)O)[C@@H](C)CC)C(C)C)C(=O)N[C@@H](CCCN=C(N)N)C(=O)N[C@H]1CSSC[C@@H](C(=O)N[C@@H](CCCN=C(N)N)C(=O)N[C@H](C(=O)O)[C@@H](C)O)NC(=O)CNC(=O)CNC(=O)[C@H](C)NC(=O)[C@H](C(C)C)NC(=O)[C@H](CCCCN)NC1=O [GLWDTIKQAGKKFFLNVLDKIRCKVAGGCRT]
- MIC [6]: 1.15 µM (≈ 4 µg/mL)
- MIC [7]: 4.61 µM (≈ 16 µg/mL)
- MIC [8]: ≥ 36.9 µM
- MIC [5]: 4.61 µM (≈ 16 µg/mL)

Compound: CC[C@H](C)[C@H](NC(=O)[C@H](CC(=O)O)NC(=O)[C@H](CCCCN)NC(=O)[C@H](C)NC(=O)[C@H](C)NC(=O)CNC(=O)[C@H](CCCCN)NC(=O)[C@H](CC(C)C)NC(=O)[C@@H](NC(=O)[C@H](CC(=O)O)NC(=O)[C@@H](NC(=O)[C@@H](NC(=O)CN)C(C)C)C(C)C)[C@@H](C)CC)C(=O)N[C@@H](C)C(=O)NCC(=O)N[C@@H](Cc1cnc[nH]1)C(=O)N[C@@H](CC(C)C)C(=O)N[C@@H](C)C(=O)N[C@@H](CO)C(=O)N[C@@H](CCCCN)C(=O)N[C@H](C(=O)N[C@@H](CCSC)C(=O)N[C@@H](CC(N)=O)C(=O)N[C@@H](CCCCN)C(=O)N[C@@H](CC(C)C)C(N)=O)C(C)C [GVVDILKGAAKDIAGHLASKVMNKL]
- MIC [9]: 24.8 µM (≈ 63.3 µg/mL)
- MIC [10]: ≥ 100 µM
- MIC [11]: 20 µM (≈ 51 µg/mL)
- MIC [12]: 100 µM (≈ 255 µg/mL)
- MIC [13]: ≥ 80 µM
- MIC [14]: ≥ 160 µM
- MIC [15]: 80 µM and 100 µM
- MIC [5]: 110 µM (≈ 280 µg/mL)
- MIC [16]: > 100 µM
- MIC [17]: ≥ 100 µM
- MIC [18]: ≥ 100 µM

Continued, values first:

- MIC [19]: 6.25 µM (≈ 19.1 µg/mL)
- MIC [3]: ≥ 100 µM
- MIC [4]: 6.25 µM (≈ 19.1 µg/mL)
- MIC [12]: 6.25 µM (≈ 19.1 µg/mL)
- MIC [14]: ≥ 100 µM
- MIC [15]: 12.5 µM (≈ 38.3 µg/mL)
- MIC [5]: 1.6 µM (≈ 4.9 µg/mL)
- MIC [16]: 3.1 µM (≈ 9.49 µg/mL)
- MIC [20]: 0.8 µM (≈ 2.45 µg/mL)
- MIC [21]: 0.8 µM (≈ 2.45 µg/mL)
- MIC [22]: 1.6 µM (≈ 4.9 µg/mL)
Compound: CC[C@H](C)[C@H](N)C(=O)N[C@@H](CCCCN)C(=O)N[C@@H](CC(C)C)C(=O)N[C@@H](CO)C(=O)N1CCC[C@H]1C(=O)N[C@@H](CCCCN)C(=O)N[C@H](C(=O)N[C@@H](CCCCN)C(=O)N[C@@H](CC(=O)O)C(=O)N[C@@H](CC(N)=O)C(=O)N[C@@H](CC(C)C)C(=O)N[C@@H](CCCCN)C(=O)N[C@@H](CCCCN)C(=O)N[C@H](C(=O)N[C@@H](CC(C)C)C(=O)N[C@@H](CCCCN)C(=O)NCC(=O)N[C@@H](C)C(=O)N[C@H](C(=O)N[C@@H](CCCCN)C(=O)NCC(=O)N[C@@H](C)C(=O)N[C@H](C(=O)N[C@@H](C)C(=O)N[C@H](C(=O)N[C@@H](C)C(=O)N[C@@H](CCCCN)C(=O)N[C@@H](CCSC)C(=O)N[C@H](C(N)=O)C(C)C)C(C)C)[C@@H](C)CC)[C@@H](C)CC)C(C)C)[C@@H](C)O [IKLSPKTKDNLKKVLKGAIKGAIAVAKMV]

- MIC [23]: 11.8 µM (≈ 38.3 µg/mL)
- MIC [24]: ≥ 46.5 µM
- MIC [25]: ≥ 48.6 µM
- MIC [26]: ≥ 47.9 µM
- MIC [27]: ≥ 51.2 µM
- MIC [28]: ≥ 50.4 µM
- MIC [29]: ≥ 50.5 µM
- MIC [30]: 23.8 µM (≈ 77.3 µg/mL)
- MIC [31]: 24 µM (≈ 77.9 µg/mL)
- MIC [32]: 25 µM (≈ 81.2 µg/mL)
- MIC [33]: 23.6 µM (≈ 76.6 µg/mL)
Compound: CC[C@H](C)[C@H](NC(=O)[C@H](CC(C)C)NC(=O)[C@H](CCCN=C(N)N)NC(=O)[C@H](CCCCN)NC(=O)[C@@H](NC(=O)[C@@H](NC(=O)CNC(=O)[C@H](CC(C)C)NC(=O)[C@H](CC(C)C)NC(=O)[C@H](CCCN=C(N)N)NC(=O)CNC(=O)[C@H](CO)NC(=O)[C@H](CCC(=O)O)NC(=O)[C@H](CCCN=C(N)N)NC(=O)[C@H](CCC(=O)O)NC(=O)[C@H](CCCCN)NC(=O)[C@H](CCC(=O)O)NC(=O)[C@H](CO)NC(=O)[C@@H](NC(=O)CNC(=O)[C@@H](N)CO)[C@@H](C)O)C(C)C)C(C)C)C(=O)N[C@H](C(=O)N[C@@H](CS)C(=O)N[C@@H](Cc1ccccc1)C(=O)N[C@@H](CCCN=C(N)N)C(=O)N[C@@H](CO)C(=O)N1CCC[C@H]1C(=O)N[C@@H](Cc1ccccc1)C(=O)N1CCC[C@H]1C(N)=O)C(C)C [SGTSEKERESGRLLGVVKRLIVCFRSPFP]
